# Assay results from US20100166826A1, “BIODEGRADABLE INTRAVAGINAL DEVICES FOR DELIVERY OF THERAPEUTICS” (University of Uath Research Foundation, priority 2007, published 2010).
# Test: release of TMC120 from degradable polyurethane (FIG. 5)
# Assay type: physicochemical
# Details: period of one month; from degradable polyurethane made from terathane-co-(caprolactone), 4,4′-methylenebis-cyclohexane diisocyanate and 1,4-butanediol
structure (smiles),measurement,value
"Cc1cc(C)c(Nc2ccnc(Nc3ccc(C#N)cc3)n2)c(C)c1 [TMC120, 4-[4-(mesitylamino)pyrimidin-2-ylamino)-benzonitrile]",release profile of TMC120,sustained release profile
